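Step 1: Grow cells in 96-well plates. Step 2: Expose to compound for 48 hours at 5 concentrations. Step 3: Interpolate endpoints linearly; if unreached, use highest concentration. The concentration for 50% growth inhibition is given as GI50.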 Calls of active or inactive are those of the source. Rule as the data show it: active = GI50 up to about 1.1 µM and inactive = higher. Where a SMILES comes first, the peptide text is derived from it. The star is where a group is joined. Boc = CC(C)(C)OC(=O)*
Key:
Experiment in all cases: growth of human tumour cells (NCI), 48 h
[1] = system: MCF7
[2] = system: T47D
[3] = system: DLD-1
[4] = system: SNB-78
[5] = system: HOP-18
[6] = system: M19-MEL
[7] = system: DMS-273
[8] = system: XF498

For `COc1ccc(Nc2nc3cc(C(F)(F)F)ccc3nc2C(=O)O)cc1`, the GI50 [1] was 20.9 µM (inactive).
In the case of `c1ccc2c(OCC3CO3)ccc(OCC3CO3)c2c1` (configuration not stated), the GI50 [1] is reported as 0.897 µM (active) and the GI50 [2] is reported as 1.91 µM (inactive).
In the case of `O=C1C(Cl)=C(NCCO)C(=O)c2c(O)ccc(O)c21`, the GI50 [1] is reported as 1.93 µM (inactive) and the GI50 [2] is reported as 4.24 µM (inactive).
For `CCOC(=O)c1nc2ccccc2nc1Oc1cc(OC)cc(OC)c1`, the GI50 [1] was > 100 µM (inactive) and the GI50 [2] was > 100 µM (inactive).
`CN1CCN(c2ccc3nc(C4=C(O)C(=O)c5c(nc(CO)n5C)C4=O)[nH]c3n2)CC1` was tested, and the GI50 [2] was 61.4 µM (inactive).
In the case of `Cc1ccc(CC(=O)Nc2ccc(NC(=O)/C=C/NC(=O)/C=C/c3ccc(-c4ccccc4)cc3)cc2C(=O)c2ccccc2)cc1`, the GI50 [1] is reported as 1.72 µM (inactive) and the GI50 [2] is reported as 2.84 µM (inactive).
`CC(=O)c1cccc(N2COC(C)(C)c3nc4ccccc4n3C2)c1` was tested, and the GI50 [3] was > 100 µM (inactive), the GI50 [4] was > 100 µM (inactive) and the GI50 [5] was > 100 µM (inactive). The GI50 [6] was > 100 µM (inactive), the GI50 [7] was > 100 µM (inactive) and the GI50 [8] was > 100 µM (inactive).
`O=S(O)CCCSSc1ccccc1` was tested, and the GI50 [3] was 41.9 µM (inactive), the GI50 [4] was 32.7 µM (inactive) and the GI50 [5] was > 100 µM (inactive). The GI50 [6] was 39.4 µM (inactive), the GI50 [7] was 30.8 µM (inactive) and the GI50 [8] was 98.9 µM (inactive).
`Cc1cnc2[nH]c(-c3cccc(Cl)c3)cc(=O)c2c1` was tested, and the GI50 [1] was 0.381 µM (active).
In the case of `O=C(Cc1ccccc1)NN1C(=O)C(Cl)C1c1ccccc1Cl` (configuration not stated), the GI50 [3] is reported as > 69.2 µM (inactive), the GI50 [4] is reported as 83.6 µM (inactive) and the GI50 [5] is reported as > 100 µM (inactive). For the same compound, the GI50 [6] was > 100 µM (inactive), the GI50 [7] was 72.8 µM (inactive) and the GI50 [8] was > 75 µM (inactive).
In the case of `O=C(O)CSc1n[nH]c(=O)[nH]c1=O`, the GI50 [1] is reported as > 100 µM (inactive) and the GI50 [2] is reported as > 100 µM (inactive).
With `O=C1CCC(=O)c2sccc2N1` the GI50 [3] was > 100 µM (inactive), the GI50 [4] was > 100 µM (inactive) and the GI50 [5] was > 100 µM (inactive). For the same compound, the GI50 [6] was > 100 µM (inactive), the GI50 [7] was > 100 µM (inactive) and the GI50 [8] was > 100 µM (inactive).
In the case of `CC(=O)c1nc2ccccc2n1CC(=O)c1ccc(Cl)cc1`, the GI50 [1] is reported as 3.73 µM (inactive) and the GI50 [2] is reported as 2.45 µM (inactive).
In the case of `CC(=O)Nc1cc2c(s1)CCC1CC(=O)NN=C21` (configuration not stated), the GI50 [4] is reported as > 100 µM (inactive), the GI50 [6] is reported as > 100 µM (inactive) and the GI50 [7] is reported as > 100 µM (inactive). The GI50 [8] was > 100 µM (inactive).
`O=S(=O)(NC(c1ccccc1)(c1cc2ccccc2[nH]1)c1cc2ccccc2n1S(=O)(=O)c1ccccc1)c1ccccc1` (configuration not stated) was tested, and the GI50 [2] was > 100 µM (inactive).
`O=C(N/C(=C\c1ccccc1O)c1nc2ccccc2[nH]1)c1ccccc1` was tested, and the GI50 [4] was 43.5 µM (inactive), the GI50 [5] was 63.5 µM (inactive) and the GI50 [6] was > 100 µM (inactive). For the same compound, the GI50 [7] was 56.6 µM (inactive) and the GI50 [8] was > 100 µM (inactive).
With `CC(=O)OCC1OC(O[C@@H]2c3c(O)c4c(c(O)c3C3=C(NN(c5ccc([N+](=O)[O-])cc5[N+](=O)[O-])[Se]3=O)[C@@]2(C)O)C(=O)c2ccccc2C4=O)C(OC(C)=O)C(OC(C)=O)C1OC(C)=O` (some centres not stated) the GI50 [1] was 0.207 µM (active) and the GI50 [2] was 0.286 µM (active).
For `O=C(/C=C1\C[C@H]2C=Nc3ccccc3C(=O)N2C1)NCCCCNC(=O)/C=C1\C[C@H]2C=Nc3ccccc3C(=O)N2C1`, the GI50 [1] was 12.4 µM (inactive) and the GI50 [2] was 4.39 µM (inactive).
For `Cc1ccc(-c2nc(Cc3n[nH]c(-c4ccc(C)cc4)n3)n[nH]2)cc1`, the GI50 [1] was > 100 µM (inactive).
For `Cc1nc2c(O)c3c(c(O)c2nc1C)C1C=CC3CC1`, the GI50 [1] was 9.75 µM (inactive) and the GI50 [2] was 2.79 µM (inactive).
In the case of `CCCCCCNC(=O)c1cc(NCc2cc(OC)ccc2OC)ccc1O`, the GI50 [1] is reported as 22.1 µM (inactive) and the GI50 [2] is reported as 13.5 µM (inactive).
With `CN1C(=O)C2C(=O)N(Cc3ccccc3)CC(=O)N2c2cccnc21` (configuration not stated) the GI50 [1] was > 100 µM (inactive) and the GI50 [2] was > 100 µM (inactive).
For `O=C(c1ccc(Cl)c(Cl)c1)N(C(=O)N1CCN(c2ccccc2)CC1)S(=O)(=O)c1ccccc1`, the GI50 [1] was 36.1 µM (inactive) and the GI50 [2] was > 100 µM (inactive).
`COc1ccc(NC/C=C/C(=C/COC(C)=O)OC(C)=O)cc1` was tested, and the GI50 [1] was 2.63 µM (inactive) and the GI50 [2] was 2.41 µM (inactive).
For `O=C1c2ccccc2C(=O)N1CCc1nc(-c2ccccc2)c[nH]1`, the GI50 [1] was > 100 µM (inactive).
`O=C1C(NCCF)=C(Cl)C(=O)c2ncccc21` was tested, and the GI50 [1] was 0.716 µM (active) and the GI50 [2] was 2.05 µM (inactive).
`CN(C)Cc1cc(C(=O)/C=C/c2ccc(/C=C/C(=O)c3cc(CN(C)C)c(O)c(CN(C)C)c3)cc2)cc(CN(C)C)c1O` was tested, and the GI50 [1] was 9.42 µM (inactive) and the GI50 [2] was > 100 µM (inactive).
In the case of `CN1CCc2c(sc3ncn(C)c(=N)c23)C1`, the GI50 [1] is reported as > 100 µM (inactive) and the GI50 [2] is reported as > 100 µM (inactive).
With `COC(=O)C(Cc1c[nH]c2ccccc12)NC(=O)C(Cc1c[nH]c2ccccc12)NC(=O)C(Cc1c[nH]c2ccccc12)NC(=O)C(Cc1c[nH]c2ccccc12)NC(=O)C(Cc1c[nH]c2ccccc12)NC(=O)C(Cc1c[nH]c2ccccc12)NC(=O)C(Cc1c[nH]c2ccccc12)NC(=O)C(Cc1c[nH]c2ccccc12)NC(=O)OC(C)(C)C` (configuration not stated) (Boc-WWWWWWWW-OMe; configuration not given here) the GI50 [1] was > 100 µM (inactive).
`CCOP1(=O)CC(C)=C(Cl)C(O)C1` (configuration not stated) was tested, and the GI50 [1] was > 100 µM (inactive) and the GI50 [2] was > 100 µM (inactive).
For `CCCSC1=N/C(=C\c2ccco2)C(=O)N1`, the GI50 [1] was 36 µM (inactive) and the GI50 [2] was 46.2 µM (inactive).
In the case of `CC(=O)OCC1OC(n2cc(F)c(=O)[nH]c2=O)C(NC(=O)N(CCCl)N=O)C(OC(C)=O)C1OC(C)=O` (configuration not stated), the GI50 [3] is reported as > 100 µM (inactive), the GI50 [4] is reported as > 100 µM (inactive) and the GI50 [5] is reported as > 100 µM (inactive). The GI50 [6] was > 100 µM (inactive), the GI50 [7] was > 100 µM (inactive) and the GI50 [8] was 36.4 µM (inactive).
